pKi: −log10 of the molar value. Counter-ions that a name gives are not always drawn.
Tests used:
[1] = biological target: T1, human SERT (Homo sapiens, UniProt P31645); assay: Determination of Ki values at SERT receptor ([3H]-Citalopram SPA binding); details: hSERT, HEK293, [3H]-Citalopram 2 nM
T1 construct: expressed in transfected cells; host or cells: HEK293
Method: Example-46: Determination of Ki Values at SERT Receptor
• Receptor source: Recombinant mammalian cells (HEK293) • Radioligand: [^3H]-Citalopram (80.8 Ci/mmol) • Final ligand concentration: 2 nM • Non-specific determinant: 0.1 mM Venlafaxine • Reference compound: Venlafaxine • Positive control: Venlafaxine Incubation conditions: Reactions were carried out in buffer with pH 7.4 containing 50 mM Tris-HCl, 150 mM NaCl, 5 mM KCl and Scintillation proximity assay (SPA) beads (0.1 mg/well) for 3 h at RT. Radioactivity proximal to SPA beads was determined by scintillation proximity assay and compared to the control values in order to ascertain any interactions of the test compound(s) with cloned human SERT receptor binding site.

[2] = biological target: T2, human adrenergic α1B receptor (Homo sapiens, UniProt P35368); assay: Determination of Ki values at adrenergic α1B receptor ([3H]-Prazosin radioligand binding); details: hα1B, Chem-1 cells, [3H]-Prazosin 1 nM; read-out: Ki Alpha1B
T2 construct: expressed in transfected cells; host or cells: Chem-1
T2 sequence (P35368 1-520): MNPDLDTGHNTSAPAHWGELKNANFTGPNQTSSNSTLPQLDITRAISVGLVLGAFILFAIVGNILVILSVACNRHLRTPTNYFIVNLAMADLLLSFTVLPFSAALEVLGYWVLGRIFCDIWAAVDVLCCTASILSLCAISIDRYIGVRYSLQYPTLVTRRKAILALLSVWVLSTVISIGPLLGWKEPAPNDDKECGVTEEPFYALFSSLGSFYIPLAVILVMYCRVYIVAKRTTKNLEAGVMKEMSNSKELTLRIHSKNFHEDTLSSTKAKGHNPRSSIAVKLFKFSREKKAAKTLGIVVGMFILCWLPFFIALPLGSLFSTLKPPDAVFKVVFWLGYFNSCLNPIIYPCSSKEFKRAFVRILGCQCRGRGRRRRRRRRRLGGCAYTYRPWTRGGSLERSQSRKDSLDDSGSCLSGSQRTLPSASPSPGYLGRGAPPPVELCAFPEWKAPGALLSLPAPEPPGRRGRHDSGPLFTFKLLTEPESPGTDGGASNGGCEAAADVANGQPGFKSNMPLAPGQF
Method: Example-47: Determination of Ki Values at Adrenergic α1B Receptor
• Receptor source: Recombinant mammalian cells (Chem-1) • Radioligand: [^3H]-Prazosin (77.4 Ci/mmol) • Final ligand concentration: 1 nM • Non-specific determinant: 0.1 mM Prazosin • Reference compound: Prazosin • Positive control: Prazosin Incubation conditions: Reactions were carried out in buffer with pH 7.4 containing 67 mM Tris-HCl, 67 μM EDTA, […] for 1 h at RT. The reaction was terminated by rapid vacuum filtration onto the glass fiber filters. Radioactivity trapped onto the filters was determined and compared to the control values in order to ascertain any interactions of the test compound(s) with cloned human adrenergic α1B receptor binding site.

[3] = biological target: T3, human 5-HT1A receptor (Homo sapiens, UniProt P08908); assay: Determination of Ki values at 5-HT1A receptor ([3H]-8-Hydroxy DPAT radioligand binding); details: h5-HT1A, HEK293-EBNA, [3H]-8-Hydroxy DPAT 0.8 nM
T3 construct: expressed in transfected cells; host or cells: HEK293-EBNA
T3 sequence (P08908 1-422): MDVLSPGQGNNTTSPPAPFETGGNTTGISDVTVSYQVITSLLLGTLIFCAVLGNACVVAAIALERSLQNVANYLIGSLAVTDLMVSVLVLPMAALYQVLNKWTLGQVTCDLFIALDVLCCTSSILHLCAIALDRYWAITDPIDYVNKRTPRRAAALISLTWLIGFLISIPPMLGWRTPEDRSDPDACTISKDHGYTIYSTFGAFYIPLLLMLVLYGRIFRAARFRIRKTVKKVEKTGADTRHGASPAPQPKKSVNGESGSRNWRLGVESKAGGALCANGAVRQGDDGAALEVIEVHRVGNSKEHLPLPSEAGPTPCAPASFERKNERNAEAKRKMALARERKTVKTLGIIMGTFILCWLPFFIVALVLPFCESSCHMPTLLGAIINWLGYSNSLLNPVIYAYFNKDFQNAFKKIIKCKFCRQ
Method: Example-43: Determination of Ki Values at 5-HT1A Receptor
• Receptor source: Recombinant mammalian cells (HEK293-EBNA) • Radioligand: [^3H]-8-Hydroxy DPAT (200 Ci/mmol) • Final ligand concentration: 0.8 nM • Non-specific determinant: 0.1 mM U92016A • Reference compound: U92016A • Positive control: U92016A Incubation conditions: Reactions were carried out in buffer with pH 7.4 containing 50 mM Tris-HCl, 0.5 mM EDTA, 10 mM MgSO4, 0.1% Ascorbic acid for 2 h at RT. The reaction was terminated by rapid vacuum filtration onto the glass fiber filters. Radioactivity trapped onto the filters was determined and compared to the control values in order to ascertain any interactions of the test compound(s) with cloned human 5-HT1A receptor binding site.

[4] = biological target: T4, human 5-HT2A receptor (Homo sapiens, UniProt P28223); assay: Determination of Ki values at 5-HT2A receptor ([3H]-Ketanserine radioligand binding); details: h5-HT2A, CHO-K1, [3H]-Ketanserine 1.25 nM
T4 construct: expressed in transfected cells; host or cells: CHO-K1
Method: Example-44: Determination of Ki Values at 5-HT2A Receptor
• Receptor source: Recombinant mammalian cells (CHO-K1) • Radioligand: [^3H]-Ketanserine (41.9 Ci/mmol) • Final ligand concentration: 1.25 nM • Non-specific determinant: 0.1 mM 1-Napthyl piperazine (1-NP) • Reference compound: 1-Napthyl piperazine (1-NP) • Positive control: 1-Napthyl piperazine (1-NP) Incubation conditions: Reactions were carried out in buffer with pH 7.4 containing 50 mM Tris-HCl, 4 mM CaCl2, 0.1% Ascorbic acid for 1 h at RT. The reaction was terminated by rapid vacuum filtration onto the glass fiber filters. Radioactivity trapped onto the filters was determined and compared to the control values in order to ascertain any interactions of the test compound(s) with cloned human 5-HT2A receptor binding site.

T1 sequence (P31645 whole entry): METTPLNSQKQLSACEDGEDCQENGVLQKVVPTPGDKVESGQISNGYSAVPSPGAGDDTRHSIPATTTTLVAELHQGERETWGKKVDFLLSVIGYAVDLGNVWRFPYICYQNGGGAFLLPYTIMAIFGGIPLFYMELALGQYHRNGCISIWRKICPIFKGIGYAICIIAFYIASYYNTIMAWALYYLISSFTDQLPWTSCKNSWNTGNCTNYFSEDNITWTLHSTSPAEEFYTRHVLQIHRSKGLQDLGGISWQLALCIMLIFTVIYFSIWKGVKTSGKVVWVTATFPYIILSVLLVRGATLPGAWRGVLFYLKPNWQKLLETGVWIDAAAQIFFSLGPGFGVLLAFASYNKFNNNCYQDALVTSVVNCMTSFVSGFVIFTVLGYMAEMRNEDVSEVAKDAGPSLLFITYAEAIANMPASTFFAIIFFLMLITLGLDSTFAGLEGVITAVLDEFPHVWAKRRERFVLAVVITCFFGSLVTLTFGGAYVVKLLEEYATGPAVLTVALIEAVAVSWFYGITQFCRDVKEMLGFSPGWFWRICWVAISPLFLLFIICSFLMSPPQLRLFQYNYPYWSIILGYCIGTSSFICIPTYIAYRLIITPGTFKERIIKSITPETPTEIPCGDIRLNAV
T4 sequence (P28223 whole entry): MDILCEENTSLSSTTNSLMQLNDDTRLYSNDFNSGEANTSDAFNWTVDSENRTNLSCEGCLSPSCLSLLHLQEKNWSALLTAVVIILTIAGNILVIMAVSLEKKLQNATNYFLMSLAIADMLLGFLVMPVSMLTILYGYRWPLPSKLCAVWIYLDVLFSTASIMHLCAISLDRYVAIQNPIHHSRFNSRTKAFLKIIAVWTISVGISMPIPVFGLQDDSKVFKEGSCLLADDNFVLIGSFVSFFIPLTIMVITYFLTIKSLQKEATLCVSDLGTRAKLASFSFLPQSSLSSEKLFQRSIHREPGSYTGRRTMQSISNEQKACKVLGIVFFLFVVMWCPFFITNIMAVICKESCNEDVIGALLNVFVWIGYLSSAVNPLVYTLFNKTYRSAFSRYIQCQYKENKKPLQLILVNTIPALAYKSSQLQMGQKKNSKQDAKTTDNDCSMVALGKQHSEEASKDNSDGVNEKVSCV

Question: What does the source list for `Cc1nnc(-c2csc(OCCCN3CCN(c4nsc5ccccc45)CC3)n2)o1` [Example-2, 3-(4-{3-[4-(5-Methyl-[1,3,4]oxadiazol-2-yl)-thiazol-2-yloxy]-propyl}-piperazin-1-yl)-benzo[d]isothiazole oxalate]?
Answer: pKi [1]: 7.10; pKi [2]: 7.88; pKi [3]: 9.82; pKi [4]: 9.62

Question: With `Cc1noc(-c2csc(OCCCN3CCN(c4nsc5ccccc45)CC3)n2)n1` [compound 12, 3-(4-{3-[4-(3-Methyl-[1,2,4]oxadiazol-5-yl)-thiazol-2-yloxy]-propyl}-piperazin-1-yl)-benzo[d]isothiazole oxalate] as the compound, how does the pKi [1] read?
Answer: The pKi was 6.80.

Question: And the pKi [2]?
Answer: The pKi was 7.84.

Question: And the pKi [3]?
Answer: Its pKi is 9.70.

Question: And the pKi [4]?
Answer: The pKi was 9.30.

— patent US12338236B2, “Benzoisothiazole and benzoisoxazole compounds for the treatment of mental disorders” (SUVEN LIFE SCIENCES LIMITED, priority 2022, dated 2025)
